Measured values from patent US6225494A, “Trisubstituted phenyl derivatives having retinoid agonist or inverse agonist type biological activity” (Allergan Sales, Inc., priority 1999, dated 2001).
pKd: −log10 of the molar value.

Columns and labels:
Assay in all cases: Ligand binding assay
RARγ = target: T1, RARγ (Homo sapiens, UniProt P13631)
T1 sequence (P13631 1-454): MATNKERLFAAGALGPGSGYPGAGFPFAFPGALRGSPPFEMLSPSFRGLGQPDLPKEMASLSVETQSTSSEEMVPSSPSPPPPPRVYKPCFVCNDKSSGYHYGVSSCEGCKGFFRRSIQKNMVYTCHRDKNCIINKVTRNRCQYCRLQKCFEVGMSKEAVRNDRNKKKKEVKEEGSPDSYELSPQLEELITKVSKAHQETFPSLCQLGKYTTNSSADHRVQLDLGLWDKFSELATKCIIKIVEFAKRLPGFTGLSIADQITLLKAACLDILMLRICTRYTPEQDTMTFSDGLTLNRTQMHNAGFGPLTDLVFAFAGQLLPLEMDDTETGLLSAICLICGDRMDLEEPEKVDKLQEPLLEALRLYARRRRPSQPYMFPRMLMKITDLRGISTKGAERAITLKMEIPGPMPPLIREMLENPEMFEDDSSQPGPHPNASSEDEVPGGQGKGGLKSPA
Text: (§1) Other assays described below, measure the ability of the compounds of the present invention to bind to, and/or activate various retinoid receptor subtypes. When in these assays a compound binds to a given receptor subtype and activates the transcription of a reporter gene through that subtype, then the compound is considered an agonist of that receptor subtype. […] In the below described assays the ability of the compounds to bind to RARα, RARβ, RARγ, RXRα, RXRβ and RXR.tau. receptors, and the ability or inability of the compounds to activate transcription of a reporter gene through these receptor subtypes can be tested.
(§2) A holoreceptor transactivation assay and a ligand binding assay which measure the antagonist/agonist like activity of the compounds of the invention, or their ability to bind to the several retinoid receptor subtypes, respectively, are described in published PCT Application No. WO WO93/11755 (particularly on pages 30-33 and 37-41) published on Jun. 24, 1993, the specification of which is also incorporated herein by reference. A detailed experimental procedure for holoreceptor transactivations has been described by Heyman et aL Cell 68, 397-406, (1992); Allegretto et aL J. Biol. Chem. 268, 26625-26633, and Mangelsdorf et aL The Retinoids: Biology, Chemistry and Medicine, pp 319-349, Raven Press Ltd., New York, which are expressly incorporated herein by reference. The results obtained in this assay are expressed in EC50 numbers, as they are also in the chimeric receptor transactivation assay. The results of ligand binding assay are expressed in Kd numbers. (See Cheng et aL Biochemical Pharmacology Vol. 22 pp 3099-3108, expressly incorporated herein by reference.)

RARβ = target: T2, RARβ (Homo sapiens, UniProt P10826); details: read-out: Kd RABβ
T2 sequence (P10826 1-448 isoform P10826-2): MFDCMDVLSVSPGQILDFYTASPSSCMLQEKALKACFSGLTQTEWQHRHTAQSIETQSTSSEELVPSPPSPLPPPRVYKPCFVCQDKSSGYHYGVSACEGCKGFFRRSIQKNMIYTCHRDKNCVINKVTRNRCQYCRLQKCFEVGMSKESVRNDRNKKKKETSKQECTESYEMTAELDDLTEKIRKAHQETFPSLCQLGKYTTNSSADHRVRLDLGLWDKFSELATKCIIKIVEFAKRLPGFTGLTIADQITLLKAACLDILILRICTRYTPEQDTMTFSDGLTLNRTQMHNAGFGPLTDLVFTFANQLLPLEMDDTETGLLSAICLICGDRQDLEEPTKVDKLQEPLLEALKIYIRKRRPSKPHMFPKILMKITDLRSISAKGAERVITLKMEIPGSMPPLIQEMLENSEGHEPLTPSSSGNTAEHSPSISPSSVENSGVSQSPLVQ
Text: as §1, §2

RARα = target: T3, RARα (Homo sapiens, UniProt P10276)
T3 sequence (P10276 1-462): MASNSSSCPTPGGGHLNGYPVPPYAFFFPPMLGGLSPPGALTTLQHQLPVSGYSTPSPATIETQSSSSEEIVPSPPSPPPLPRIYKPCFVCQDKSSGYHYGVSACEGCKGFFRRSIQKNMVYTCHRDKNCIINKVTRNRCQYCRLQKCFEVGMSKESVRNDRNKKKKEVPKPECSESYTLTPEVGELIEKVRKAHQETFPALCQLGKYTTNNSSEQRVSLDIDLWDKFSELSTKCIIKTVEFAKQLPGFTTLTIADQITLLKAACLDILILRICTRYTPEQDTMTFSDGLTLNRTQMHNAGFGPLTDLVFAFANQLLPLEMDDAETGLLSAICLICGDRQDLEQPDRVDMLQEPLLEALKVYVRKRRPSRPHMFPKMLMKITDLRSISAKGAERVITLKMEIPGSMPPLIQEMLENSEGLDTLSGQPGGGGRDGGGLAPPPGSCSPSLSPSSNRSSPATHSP
Text: as §1, §2

Compound	pKd (RARγ)	pKd (RARβ)	pKd (RARα)
Cc1ccc(C(=O)c2cc(C#Cc3ccc(C(=O)O)cc3)ccc2O)cc1 [Compound 5, 4-[[4'-hydroxy-3'-(4"-methyl)benzoyl]phenylethynyl]benzoic acid]	6.05	7.01	6.47
C=C(c1ccc(C)cc1)c1cc(C#Cc2ccc(C(=O)O)cc2)ccc1O [Compound 8, 4-[[4'-Hydroxy-3'-(1-p-tolyl)vinyl]phenylethynyl]benzoic acid]	5.28	5.88	5.09
C=C(c1ccc(C)cc1)c1cc(C#Cc2ccc(C(=O)O)cc2)ccc1OCOC [Compound 9, 4-[[4'-methoxymethoxy-3'-(1-p-tolyl)vinyl]phenylethynyl]benzoic acid]	6.14	6.82	6.03
C=C(c1ccc(C)cc1)c1cc(C#Cc2ccc(C(=O)O)cc2)ccc1OC [Compound 12, 4-[[4'-Methoxy-3'-(1-p-tolyl)vinyl]phenylethynyl]benzoic acid]	6.40	6.71	5.84
COCOc1ccc(C#Cc2ccc(C(=O)O)cc2)cc1C(=O)c1ccc(C)cc1 [Compound 13]	6.04	6.31	5.93

Other lines, results leading:

pKd (RARγ)	pKd (RARβ)	pKd (RARα)	Compound
< 6.00	6.65	< 6.00	C=C(c1ccc(C)cc1)c1cccc(C#Cc2ccc(C(=O)O)cc2)c1 [Compound 20, 4-[[3'-(1-p-Tolyl)vinyl]phenylethynyl]benzoic acid]
5.82	6.12	5.80	COc1ccc(C#Cc2ccc(C(=O)O)cc2)cc1C(=O)c1ccc(C)cc1 [Compound 22, 4-[[4'-methoxy-3'-(4"-methyl)benzoyl]phenylethynyl]benzoic acid]
5.71	6.66	5.94	Cc1ccc(C(=O)c2cc(C#Cc3ccc(C(=O)O)c(F)c3)c(C)cc2O)cc1 [Compound 25, 4-[[4'-Hydroxy-2'-methyl-5'-(4"-methyl)benzoyl]phenylethynyl]-2-fluoro-benzoic acid]
6.02	6.27	5.68	C=C(c1ccc(C)cc1)c1cc(C#Cc2ccc(C(=O)O)cc2)ccc1OC(C)C [Compound 28, 4-[[4'-Isopropoxy-3'-(1-p-tolyl)vinyl]phenylethynyl]benzoic acid]
6.09	6.63	5.94	C=C(c1ccc(C)cc1)c1cc(C#Cc2ccc(C(=O)O)c(F)c2)ccc1OC(C)C [Compound 29, 4-[[4'-Isopropoxy-3'-(1-p-tolyl)vinyl]phenylethynyl]-2-fluoro-benzoic acid]
6.44	6.31	5.48	C=C(c1cccc(C)c1)c1cc(C#Cc2ccc(C(=O)O)cc2)ccc1OC(C)C [Compound 31, 4-[[4'-Isopropoxy-3'-(1-m-tolyl)vinyl]phenylethynyl]benzoic acid]
